One assay deals with T1, RARγ (Homo sapiens, UniProt P13631).
T1 sequence (P13631 185-454 limits assumed): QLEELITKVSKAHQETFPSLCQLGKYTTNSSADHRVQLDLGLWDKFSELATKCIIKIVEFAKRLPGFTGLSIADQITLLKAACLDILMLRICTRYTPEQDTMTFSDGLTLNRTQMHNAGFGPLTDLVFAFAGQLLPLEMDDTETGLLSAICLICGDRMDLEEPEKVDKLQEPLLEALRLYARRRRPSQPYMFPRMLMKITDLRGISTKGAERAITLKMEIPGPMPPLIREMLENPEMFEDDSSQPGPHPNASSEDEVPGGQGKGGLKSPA
In words: chimeric receptor transactivation assay, RARγ. The assay is classed as cell-based. As to conditions: EC50 line of EC50/(EFFICACY)/Kd, read-out: RAR γ EC50. An excerpt:
(§1) Assays described below measure the ability of a compound to bind to, and/or activate various retinoid receptor subtypes. When in these assays a compound binds to a given receptor subtype and activates the transcription of a reporter gene through that subtype, then the compound is considered an agonist of that receptor subtype. […] In the below described assays the ability of the compounds to bind to RARα, RARβ, RARγ, RXRα, RXRβ and RXRγ receptors, and the ability or inability of the compounds to activate transcription of a reporter gene through these receptor subtypes can be tested.
(§2) The results obtained in this assay are expressed in EC50 numbers, as they are also in the chimeric receptor transactivation assay. The results of ligand binding assay are expressed in Kd numbers.

For the next assay, the target named is T2, RARα (Homo sapiens, UniProt P10276).
T2 sequence (P10276 1-462): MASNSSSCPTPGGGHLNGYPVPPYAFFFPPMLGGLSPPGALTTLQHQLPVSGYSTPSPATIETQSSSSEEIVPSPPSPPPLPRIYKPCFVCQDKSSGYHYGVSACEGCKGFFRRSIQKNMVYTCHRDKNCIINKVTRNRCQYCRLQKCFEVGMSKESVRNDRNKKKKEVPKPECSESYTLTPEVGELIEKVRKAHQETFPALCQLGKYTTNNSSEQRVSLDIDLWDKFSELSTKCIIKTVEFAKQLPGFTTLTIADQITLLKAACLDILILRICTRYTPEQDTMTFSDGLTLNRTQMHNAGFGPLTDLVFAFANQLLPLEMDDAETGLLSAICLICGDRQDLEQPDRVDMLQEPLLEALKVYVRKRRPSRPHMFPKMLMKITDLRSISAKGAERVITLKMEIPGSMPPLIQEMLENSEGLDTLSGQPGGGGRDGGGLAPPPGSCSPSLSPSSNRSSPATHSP
In words: ligand binding assay, RARα. To be noted: Kd line of EC50/(EFFICACY)/Kd, K = thousand, read-out: RAR α Kd.
Text: as §1, §2

Assay [1] addresses T3, RARβ (Homo sapiens, UniProt P10826).
T3 sequence (P10826 183-417 limits assumed): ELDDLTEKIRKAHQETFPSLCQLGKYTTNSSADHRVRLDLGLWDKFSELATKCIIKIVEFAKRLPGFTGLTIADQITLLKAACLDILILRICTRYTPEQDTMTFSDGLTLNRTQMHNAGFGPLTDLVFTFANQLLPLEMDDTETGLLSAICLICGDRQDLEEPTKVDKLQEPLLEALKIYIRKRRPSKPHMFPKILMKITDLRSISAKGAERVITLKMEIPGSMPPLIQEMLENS
In words: chimeric receptor transactivation assay, RARβ. To be noted: EC50 line of EC50/(EFFICACY)/Kd, read-out: RAR β EC50. It is filed as cell-based.
Text: as §1, §2

The next assay addresses T4, P450RAI-1 (Homo sapiens, UniProt O43174).
T4 construct: expressed in transfected cells; host or cells: HeLa (stably transfected, hygromycin selection)
T4 sequence (O43174 1-497): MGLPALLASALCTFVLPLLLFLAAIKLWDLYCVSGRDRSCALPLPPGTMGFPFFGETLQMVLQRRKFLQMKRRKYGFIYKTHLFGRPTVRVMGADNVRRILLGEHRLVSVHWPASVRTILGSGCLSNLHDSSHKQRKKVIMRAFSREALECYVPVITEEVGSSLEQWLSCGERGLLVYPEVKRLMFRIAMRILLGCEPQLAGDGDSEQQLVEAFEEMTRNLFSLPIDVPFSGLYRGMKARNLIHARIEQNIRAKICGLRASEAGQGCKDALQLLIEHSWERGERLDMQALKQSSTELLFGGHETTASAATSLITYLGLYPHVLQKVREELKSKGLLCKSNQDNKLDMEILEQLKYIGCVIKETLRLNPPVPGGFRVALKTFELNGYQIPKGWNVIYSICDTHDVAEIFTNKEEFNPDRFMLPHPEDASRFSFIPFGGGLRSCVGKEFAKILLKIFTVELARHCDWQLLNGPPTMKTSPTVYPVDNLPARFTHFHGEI
Briefly: P450RAI-1 cell-based inhibitor assay (intact HeLa). As to conditions: read-out: P450RAI INHIBITION DATA INTACT HELA IC50. The protocol:
P450RAI-1 Cell-Based Inhibitor Assay:
P450RAI-1 stably transfected HeLa cells are maintained in […] tissue culture dishes in Modified Eagle's Medium (MEM) containing 10% Fetal Bovine Serum (FBS) and 100 μg/ml hygromycin. Exponentially growing cells are harvested by incubating in trypsin. Cells are then washed with 1× Phosphate Buffered Saline (PBS) and plated in a 48-well plate at 5×10^5 cells in 0.2 ml MEM medium containing 10% FBS and 0.05 μCi [^3H]-RA in the presence or absence of increasing concentrations of the test compounds. The compounds are diluted in 100% DMSO and then added in triplicate wells at either 10, 1 or 0.1 μM final concentration. As a positive control for RA metabolism inhibition, cells are also incubated with ketoconazole at 100, 10 and 1 μM. Cell are incubated for 3 hours at 37° C. […] The water soluble radioactivity is quantified using β-scintillation counter. IC50 values represent the concentration of inhibitor required to inhibit all-trans-RA metabolism by 50 percent and are derived manually from log-transformed data.

Assay [2] deals with T5, RARβ (Homo sapiens, UniProt P10826).
T5 sequence (P10826 1-455): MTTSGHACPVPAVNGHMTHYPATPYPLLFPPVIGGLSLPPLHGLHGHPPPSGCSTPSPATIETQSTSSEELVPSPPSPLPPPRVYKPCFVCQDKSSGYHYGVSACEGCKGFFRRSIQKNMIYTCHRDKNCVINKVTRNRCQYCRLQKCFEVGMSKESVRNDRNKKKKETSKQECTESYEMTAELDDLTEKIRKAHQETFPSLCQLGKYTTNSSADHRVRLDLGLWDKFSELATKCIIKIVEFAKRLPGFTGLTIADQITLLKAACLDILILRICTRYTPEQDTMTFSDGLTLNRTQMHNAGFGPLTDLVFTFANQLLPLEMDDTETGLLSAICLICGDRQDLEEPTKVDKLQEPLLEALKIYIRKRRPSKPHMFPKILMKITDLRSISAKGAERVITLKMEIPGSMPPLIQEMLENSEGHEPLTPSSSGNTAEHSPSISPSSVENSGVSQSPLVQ
In words: ligand binding assay, RARβ. To be noted: Kd line of EC50/(EFFICACY)/Kd, K = thousand, read-out: RAR β Kd.
Text: as §1, §2

The structures appear in SMILES notation. A value given as a limit tells only on which side of the number the result lay.

For `CC1(C)CC(C)(C)c2cc(C#Cc3ccc(C(=O)O)cc3)ccc2O1` [Compound 201], the EC50 is 180 nM on RARγ and more than 10000 nM on RARβ [1]. Also, the values for the Kd at RARα and on RARβ [2] were 90 nM and 1100 nM, respectively. Besides, on P450RAI-1, the IC50 was found to be 520 nM.
